According to patent publication US6589980B2, “Substituted 10,11-benzo[b]fluoren-10-ones as estrogenic agents” (Wyeth, priority 2001, dated 2003):

Columns and labels:
human ERβ = molecular target: T1, human ERβ (Homo sapiens, UniProt Q92731); assay: Competition with [3H]-17β-estradiol for binding to ERβ ligand binding domain; settings: crude E. coli lysate expressing ER ligand binding domains (D,E,&F); 2 nM [3H]-17β-estradiol; 5-15 hours at room temperature
T1 construct: made in house; host or cells: E. coli (crude lysate)
Method: (§1) This test procedure provides the methodology for one to determine whether a particular compound binds to the estrogen receptor (and is therefore “estrogenic”) and whether there is selectivity for ERα or ERβ. […] The procedure used is briefly described below. A crude lysate of E. coli expressing the estrogen receptor ligand binding domains (D,E, & F) of human ERα or ERβ was prepared. Both receptors and compounds were diluted in 1×Dulbecco's PBS (DPBS) supplemented with 1 mM EDTA. […] After between 5 and 15 hours at room temperature, the plates were washed with DPBS/1 mM EDTA and bound radioactivity determined by liquid scintillation counting.

human ERα = molecular target: T2, human ERα (Homo sapiens, UniProt P03372); assay: Competition with [3H]-17β-estradiol for binding to ERα ligand binding domain; settings: crude E. coli lysate expressing ER ligand binding domains (D,E,&F); 2 nM [3H]-17β-estradiol; 5-15 hours at room temperature
T2 construct: made in house; host or cells: E. coli (crude lysate)
T2 sequence (P03372 311-547 limits assumed): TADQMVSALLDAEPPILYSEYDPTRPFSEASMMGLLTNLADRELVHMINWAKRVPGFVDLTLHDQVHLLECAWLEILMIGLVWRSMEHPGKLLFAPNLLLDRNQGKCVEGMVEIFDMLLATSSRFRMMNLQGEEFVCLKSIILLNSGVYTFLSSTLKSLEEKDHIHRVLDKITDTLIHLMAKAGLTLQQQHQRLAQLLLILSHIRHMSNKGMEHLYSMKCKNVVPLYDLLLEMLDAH
Method: as §1

T1 sequence (Q92731 264-498 limits assumed): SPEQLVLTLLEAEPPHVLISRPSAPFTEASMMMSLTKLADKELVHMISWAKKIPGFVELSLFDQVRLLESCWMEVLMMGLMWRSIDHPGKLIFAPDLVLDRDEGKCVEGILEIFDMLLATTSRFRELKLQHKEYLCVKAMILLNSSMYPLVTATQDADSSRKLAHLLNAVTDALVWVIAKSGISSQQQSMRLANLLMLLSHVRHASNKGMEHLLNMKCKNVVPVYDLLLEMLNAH

Row | IC50 (human ERβ) | IC50 (human ERα) | melting point | SMILES
1 | 2 nM | – | – | O=c1c2c(O)cc(O)cc2oc2oc3cc(O)ccc3c12 [2,6,8-Trihydroxy-10,11-dioxa-benzo[b]fluoren-5-one]
2 | 28 nM | 482 nM | > 300 °C | O=c1c2ccc(O)cc2oc2oc3cc(O)ccc3c12 [2,8-Dihydroxy-10,11-dioxa-benzo[b]fluoren-5-one]
3 | – | 2730 nM | – | COc1cc(O)c2c(=O)c3c(oc2c1)oc1cc(O)ccc13 [2.6-Dihvdroxy-8-methoxy-10,11-dioxa-benzo[b]fluoren-5-one]
